Measurements: the supplement of paper PMC10307832

How the values were obtained:
Assay in all cases: relative viability (nuclei count vs DMSO), 5 days (fraction); higher = more cells survive
VX-702 + Foretinib = compound: NC(=O)c1ccc(N(C(N)=O)c2c(F)cccc2F)nc1-c1ccc(F)cc1F [VX-702] + COc1cc2c(Oc3ccc(NC(=O)C4(C(=O)Nc5ccc(F)cc5)CC4)cc3F)ccnc2cc1OCCCN1CCOCC1 [Foretinib] (partner 0.25 µM)
Outline: (§1)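 The day after seeding in 1536-well plates, lung cancer cell lines were treated by pin tool with a single drug, or with a fixed anchor-drug dose together with five library-drug doses (not always all listed) in √10 steps. After 5 days, a combined fix-and-stain solution (final 0.05% Triton X-100, 1% formaldehyde, 1 ug/ml Hoechst) was added. Nuclei counted on 4× images gave relative viability as treated counts over vehicle counts, reported as the median of duplicate plates.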

Dabrafenib + Alpelisib = compound: CC(C)(C)c1nc(-c2cccc(NS(=O)(=O)c3c(F)cccc3F)c2F)c(-c2ccnc(N)n2)s1 [Dabrafenib] + Cc1nc(NC(=O)N2CCC[C@H]2C(N)=O)sc1-c1ccnc(C(C)(C)C(F)(F)F)c1 [Alpelisib] (partner 2 µM)
Outline: as §1

Dabrafenib + Dasatinib = compound: CC(C)(C)c1nc(-c2cccc(NS(=O)(=O)c3c(F)cccc3F)c2F)c(-c2ccnc(N)n2)s1 [Dabrafenib] + Cc1nc(Nc2ncc(C(=O)Nc3c(C)cccc3Cl)s2)cc(N2CCN(CCO)CC2)n1 [Dasatinib] (partner 0.075 µM)
Outline: as §1

VX-702 + Phenformin = compound: NC(=O)c1ccc(N(C(N)=O)c2c(F)cccc2F)nc1-c1ccc(F)cc1F [VX-702] + N=C(N)NC(=N)NCCc1ccccc1 [Phenformin] (partner 250 µM)
Outline: as §1

Row | Cell Line | relative viability (VX-702 + Foretinib; first compound 0.02 µM) | relative viability (VX-702 + Foretinib; first compound 0.2 µM) | relative viability (VX-702 + Foretinib; first compound 0.6325 µM) | relative viability (VX-702 + Foretinib; first compound 2 µM) | relative viability (Dabrafenib + Alpelisib; first compound 0.003 µM) | relative viability (Dabrafenib + Alpelisib; first compound 0.009487 µM) | relative viability (Dabrafenib + Alpelisib; first compound 0.03 µM) | relative viability (Dabrafenib + Alpelisib; first compound 0.09487 µM) | relative viability (Dabrafenib + Alpelisib; first compound 0.3 µM) | relative viability (Dabrafenib + Dasatinib; first compound 0.009487 µM) | relative viability (Dabrafenib + Dasatinib; first compound 0.03 µM) | relative viability (Dabrafenib + Dasatinib; first compound 0.09487 µM) | relative viability (Dabrafenib + Dasatinib; first compound 0.3 µM) | relative viability (VX-702 + Phenformin; first compound 0.02 µM) | relative viability (VX-702 + Phenformin; first compound 0.2 µM) | relative viability (VX-702 + Phenformin; first compound 0.6325 µM) | relative viability (VX-702 + Phenformin; first compound 2 µM) | relative viability (Dabrafenib + Dasatinib; first compound 0.003 µM)
1 | NCI-H596 | 0.79 | 0.82 | 1.11 | 0.992 | 0.408 | 0.578 | 0.427 | 0.534 | 0.566 | 0.624 | 0.742 | 0.544 | 0.646 | 0.587 | 0.749 | 0.797 | 0.742 | –
2 | HCC-827 | 1.07 | 0.988 | 1.07 | 0.787 | 0.895 | 0.967 | 0.778 | 0.793 | 0.963 | 0.384 | 0.287 | – | 0.382 | 0.417 | 0.457 | 0.423 | 0.188 | 0.44
3 | NCI-H1755 | 0.93 | 0.952 | 0.807 | 0.944 | 0.907 | 0.937 | 0.734 | 0.904 | 0.875 | 0.38 | 0.405 | 0.403 | 0.337 | 0.638 | 0.608 | 0.611 | 0.62 | 0.419
4 | SK-LU-1 | 0.917 | 0.786 | 0.777 | 1.01 | 0.915 | 1 | 0.869 | 0.714 | 0.691 | 0.185 | 0.193 | 0.173 | 0.188 | 0.636 | 0.508 | 0.524 | 0.531 | –
5 | NCI-H2347 | 1.49 | 0.828 | 1.16 | 1.03 | 0.561 | 1.01 | 0.887 | 0.965 | 0.991 | 0.309 | 0.308 | 0.448 | 0.38 | 0.574 | – | 0.395 | 0.425 | –
6 | NCI-H2023 | 0.761 | 0.722 | 0.724 | 1 | 0.668 | 0.614 | 0.635 | 0.614 | 0.801 | 0.589 | 0.586 | 0.516 | 0.673 | 0.407 | 0.469 | 0.413 | 0.559 | 0.559
7 | NCI-H1944 | 0.812 | 0.821 | 0.798 | 0.71 | 0.785 | 0.877 | 0.745 | 0.84 | 0.838 | 0.24 | 0.236 | 0.244 | 0.178 | 0.228 | 0.202 | 0.2 | 0.161 | 0.197
8 | NCI-H2126 | 1.15 | 1.1 | 1.21 | 1.18 | 0.706 | 0.78 | 0.74 | 0.796 | 0.777 | 0.642 | 0.681 | 0.713 | 0.69 | 0.545 | 0.521 | 0.51 | 0.507 | 0.582
9 | NCI-H2170 | 1.07 | 1 | 1.08 | 1.03 | 0.91 | 0.848 | 0.713 | 0.733 | 0.95 | 0.483 | 0.53 | 0.618 | 0.544 | 0.475 | 0.442 | 0.429 | 0.451 | 0.597
10 | SW 1573 | 1.05 | 0.876 | 0.784 | 0.679 | 0.765 | 0.931 | 0.74 | 0.663 | 0.669 | 0.557 | 0.457 | 0.279 | 0.379 | 0.364 | 0.261 | 0.282 | 0.327 | 0.263
11 | EPLC-272H | 0.6 | 0.659 | 0.667 | 0.817 | – | 1.1 | 0.843 | 0.962 | 0.864 | 0.443 | 0.399 | 0.344 | 0.33 | 0.303 | 0.302 | 0.381 | 0.26 | 0.281
12 | NCI-H1563 | 1.04 | 0.914 | 1 | 0.822 | 0.944 | 0.971 | 0.853 | 0.777 | 1.06 | 0.46 | 0.459 | 0.461 | 0.456 | 0.702 | 0.684 | 0.694 | 0.592 | 0.408
13 | NCI-H1651 | 0.814 | 0.794 | 0.824 | 0.803 | 0.994 | 1.01 | 0.859 | 0.935 | 0.904 | 0.411 | 0.373 | 0.442 | 0.435 | 0.37 | 0.34 | 0.341 | 0.301 | 0.355
14 | NCI-H23 | 0.961 | 1.03 | 1.15 | 1.21 | – | 0.787 | 0.554 | 0.652 | 0.791 | 0.814 | 0.873 | 0.625 | 0.666 | 0.787 | 0.77 | 0.884 | 0.875 | –
15 | NCI-H727 | 0.936 | 0.806 | 0.824 | 0.813 | – | 0.757 | 0.519 | 0.647 | 0.638 | 0.479 | 0.434 | – | 0.568 | 0.618 | 0.607 | 0.568 | 0.499 | –
16 | NCI-H1993 | 0.717 | 0.773 | 0.754 | 0.693 | 0.689 | 0.618 | 0.534 | 0.686 | 0.778 | 0.665 | 0.607 | 0.845 | 0.856 | 0.498 | 0.493 | 0.518 | 0.562 | 0.627
17 | NCI-H2405 | 1.08 | 0.98 | 0.965 | 1.02 | – | 0.768 | – | 0.644 | 0.701 | 0.221 | – | 0.181 | 0.172 | 0.457 | 0.437 | 0.385 | 0.401 | –
18 | NCI-H661 | 1.11 | 1.08 | 1.12 | 1.1 | 0.259 | 0.707 | 0.382 | 0.432 | 0.687 | 0.821 | 1.04 | 0.921 | 1.06 | 0.296 | 0.329 | 0.298 | 0.299 | 0.591
19 | HCC-366 | 0.896 | 0.873 | 0.955 | 0.922 | – | 0.435 | 0.145 | 0.374 | 0.59 | 0.692 | 0.68 | 0.627 | 0.584 | 0.594 | 0.62 | 0.679 | 0.5 | 0.197
